Source: PubChem BioAssay (NCI)
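96-well plates; 48 h exposure; 5 concentrations. Endpoints by linear interpolation between flanking doses. Not reached: highest tested concentration assigned. TGI denotes the concentration required for complete inhibition of growth.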

Assays:
Test in all cases: DTP human tumour cell line panel, 48 h
[1] = test system: OVCAR-5 ovarian
[2] = test system: OVCAR-4 ovarian
[3] = test system: UACC-62 melanoma
[4] = test system: NCI-H522 lung
[5] = test system: OVCAR-8 ovarian
[6] = test system: BT-549 breast
[7] = test system: RPMI-8226 leukemia
[8] = test system: HCT-116 colon
[9] = test system: SW-620 colon
[10] = test system: CCRF-CEM leukemia
[11] = test system: M14 melanoma
[12] = test system: HCC-2998 colon
[13] = test system: MALME-3M melanoma
[14] = test system: MCF7 breast
[15] = test system: MDA-MB-231 breast
[16] = test system: SK-MEL-5 melanoma
[17] = test system: COLO 205 colon
[18] = test system: UO-31 renal
[19] = test system: ACHN renal
[20] = test system: RXF 393 renal

| SMILES | TGI [1] [µM] | TGI [2] [µM] | TGI [3] [µM] | TGI [4] [µM] | TGI [5] [µM] | TGI [6] [µM] | TGI [7] [µM] | TGI [8] [µM] | TGI [9] [µM] | TGI [10] [µM] | TGI [11] [µM] | TGI [12] [µM] | TGI [13] [µM] | TGI [14] [µM] | TGI [15] [µM] | TGI [16] [µM] | TGI [17] [µM] | TGI [18] [µM] | TGI [19] [µM] | TGI [20] [µM] |
| --- | --- | --- | --- | --- | --- | --- | --- | --- | --- | --- | --- | --- | --- | --- | --- | --- | --- | --- | --- | --- |
| COC(=O)c1c2c(cc3c1CC1(Cc4cc5c(cc4C1=O)CCC5)C3)CCC2 (stereo not drawn) | > 100 | > 100 | > 100 | > 100 | > 100 | > 100 | 57.7 | > 100 | > 100 | > 100 | > 100 | > 100 | > 100 | > 100 | > 100 | 54.4 | > 100 | > 100 | > 100 | – |
| O=c1[nH]c(-n2[nH]c3c(c2=O)CCCC3)nc(O)c1-c1ccccc1 | > 100 | > 100 | > 100 | > 100 | > 100 | > 100 | > 100 | > 100 | > 100 | > 100 | > 100 | – | > 100 | – | > 100 | > 100 | > 100 | > 100 | > 100 | > 100 |
| C#CCCCOc1ncccn1 | > 100 | > 100 | > 100 | > 100 | > 100 | > 100 | > 100 | > 100 | > 100 | – | > 100 | > 100 | > 100 | > 100 | > 100 | > 100 | > 100 | > 100 | > 100 | > 100 |
| COC(=O)/C=C(\S/C(=N\n1cc(C(=O)OC)c(C(=O)OC)c1-c1ccc(C)cc1)c1ccc(C)cc1)C(=O)OC | 14.5 | 3.37 | 25.9 | 3.7 | 34.9 | 21.3 | 20.1 | 4.2 | 5.53 | – | 11 | 34 | 13.9 | 23.7 | 11.7 | 27.1 | 6.61 | 8.48 | 5.78 | 13.9 |
| O=c1[nH]c(=O)n(C2CC(O)C(CO)O2)cc1OCC1CCCCC1 (stereo not drawn) | > 100 | > 100 | > 100 | > 100 | > 100 | > 100 | – | > 100 | – | > 100 | > 100 | – | > 100 | > 100 | > 100 | > 100 | > 100 | > 100 | > 100 | > 100 |
| Clc1ccc(-c2ccc(-c3nn4c(CNc5ccccc5)nnc4s3)o2)c(Cl)c1 | > 100 | > 100 | – | > 100 | > 100 | > 100 | > 100 | > 100 | > 100 | > 100 | > 100 | – | > 100 | – | > 100 | > 100 | > 100 | > 100 | > 100 | 86.2 |
| O=c1c2cc([N+](=O)[O-])ccc2nc2n1CCCCC2 | > 100 | > 100 | > 100 | > 100 | > 100 | > 100 | > 100 | > 100 | > 100 | > 100 | > 100 | – | > 100 | > 100 | > 100 | > 100 | > 100 | > 100 | > 100 | > 100 |
| CCOP(=O)(OCC)[C@H]1OC(C)(C)O[C@@H]1CO | > 100 | > 100 | > 100 | > 100 | > 100 | > 100 | > 100 | > 100 | > 100 | > 100 | > 100 | > 100 | > 100 | > 100 | > 100 | > 100 | > 100 | – | > 100 | – |
| COc1cccc(Cc2cc(=O)c3ccc(C)nc3[nH]2)c1 | > 100 | – | > 100 | 65 | > 100 | > 100 | > 100 | > 100 | > 100 | > 100 | > 100 | – | > 100 | > 100 | > 100 | > 100 | > 100 | > 100 | – | > 100 |
| CC(=O)O[C@H]1CCC2[C@@H]3CCC4Cc5nc6c(nc5C[C@]4(C)C3CC[C@@]21C)CC1CC[C@@H]2C(CC[C@@]3(C)C2CC[C@@H]3C(C)CCCC(C)C)[C@@]1(C)C6 (stereo partly drawn) | > 100 | > 100 | > 100 | – | > 100 | > 100 | > 100 | > 100 | > 100 | > 100 | > 100 | – | > 100 | > 100 | > 100 | > 100 | > 100 | > 100 | > 100 | > 100 |
| CNC(=O)CN(C)C(=O)CCC(=O)N(C)C | > 100 | – | > 100 | > 100 | > 100 | > 100 | > 100 | > 100 | > 100 | > 100 | > 100 | > 100 | > 100 | > 100 | > 100 | > 100 | > 100 | > 100 | > 100 | – |
| Cc1ccc(C(=O)OCC(C)C)cc1N=NN(C)C | > 100 | > 100 | > 100 | > 100 | > 100 | > 100 | > 100 | > 100 | > 100 | > 100 | > 100 | > 100 | > 100 | > 100 | > 100 | > 100 | > 100 | > 100 | > 100 | – |
| Cc1ccc(C)c2c1CC(Cc1ccccc1C(=O)O)C2=O (stereo not drawn) | > 100 | > 100 | > 100 | > 100 | > 100 | > 100 | – | > 100 | > 100 | > 100 | > 100 | > 100 | > 100 | > 100 | > 100 | > 100 | > 100 | > 100 | > 100 | > 100 |
| CSc1nc(SC)c2ncn(C3CC(Oc4ccc(C)cc4)C(COc4ccc(C)cc4)O3)c2n1 (stereo not drawn) | > 100 | > 100 | > 100 | > 100 | > 100 | > 100 | > 100 | > 100 | > 100 | > 100 | > 100 | > 100 | > 100 | > 100 | > 100 | > 100 | > 100 | 7.61 | > 100 | – |
| Cc1ccc2c(=O)cc(-c3ccsc3)[nH]c2n1 | > 100 | > 100 | > 100 | > 27.3 | > 100 | > 100 | – | > 75.6 | > 21.1 | > 83 | > 58.1 | 42.9 | > 100 | > 100 | > 87.6 | > 28.5 | 12.8 | 9.47 | > 100 | > 31 |
| Clc1cc(Br)c2c3c(c(Br)cc(Cl)c13)C(Br)=C2Br | > 100 | > 100 | 79.7 | 38.8 | 93 | 78 | 58.9 | 40.3 | > 100 | – | > 100 | 38.6 | > 100 | > 100 | 82 | – | – | > 100 | 36.3 | – |
| CCOC(=O)c1ccc(Nc2nc3ccccc3nc2C(=O)OCC)cc1 | > 100 | > 100 | > 100 | > 100 | > 100 | > 100 | > 100 | > 100 | – | > 100 | > 100 | > 100 | > 100 | > 100 | > 100 | > 100 | > 100 | > 100 | > 100 | – |
| CC(=O)OCCOc1cc2c([nH]c3ccccc32)c(C)c2cccc1-2 | 9.11 | 4 | 6.05 | 4.29 | 7.68 | 8.22 | > 26.4 | 13.1 | > 24.9 | > 30 | 6.76 | – | 5.64 | 15.2 | 3.38 | 9.79 | 3.22 | 3.34 | 3.35 | 4.4 |
| Cc1nc2ccccc2c(=O)n1NC(=S)Nc1ccc(Cl)cc1[N+](=O)[O-] | > 100 | > 100 | > 100 | > 100 | > 100 | > 100 | > 100 | > 100 | > 100 | > 100 | > 100 | – | > 100 | > 100 | > 100 | > 100 | > 100 | > 100 | > 100 | > 100 |
| O=S(=O)(c1ccccc1)C1(CCC2OCCO2)C=CC2(CC1)OCCO2 (stereo not drawn) | > 100 | > 100 | > 100 | – | > 100 | > 100 | > 100 | > 100 | > 100 | > 100 | > 100 | > 100 | > 100 | > 100 | > 100 | > 100 | > 100 | > 100 | > 100 | – |
| COc1ccc2c(ccc3c(COC(=O)NC(C)C)c(COC(=O)NC(C)C)n(C)c32)c1 | 30.8 | 28 | 18.4 | 12.8 | 34.2 | 29.4 | > 100 | 17.4 | 32.8 | > 100 | 22.1 | – | 12.2 | 93.5 | 34.2 | 28.4 | 22.6 | 28.9 | 7.13 | 22.2 |
| CC(O)C1(CNc2cc(Cl)nc(N)n2)CC(CCc2ccccc2)C1 (stereo not drawn) | 33.9 | 23.3 | 24.5 | 21.8 | 32 | 33.6 | 43.1 | 21.1 | 29.3 | 94.5 | 33.4 | – | 26.4 | 0.992 | 22.5 | 19.7 | 28.8 | 24.6 | 22.2 | 30.8 |
| NCCC(=O)N[C@@H](Cc1cc(O)c(O)c(SCC(NC(=O)CC[C@H](N)C(=O)O)C(=O)NCC(=O)O)c1)C(=O)O (stereo partly drawn) | > 50 | > 50 | > 50 | > 50 | – | > 50 | > 50 | > 50 | > 50 | – | > 50 | > 50 | > 50 | > 50 | > 50 | – | > 50 | > 50 | > 50 | > 50 |
| COC(=O)/C=C(/OC)[C@H](C)[C@H](/C=C/c1csc(-c2csc(C(C)C)n2)n1)OC | > 100 | > 100 | > 100 | > 100 | > 100 | > 100 | 65.8 | > 100 | > 100 | > 100 | > 100 | – | > 100 | > 100 | > 100 | 19.9 | > 100 | > 100 | > 100 | > 25 |
| CC(C)(C)OC(=O)C1CC[C@@H](CC(=O)Oc2ccc([N+](=O)[O-])cc2)N1 (stereo partly drawn) | > 100 | > 100 | > 100 | > 100 | > 100 | – | > 100 | > 100 | > 100 | > 100 | > 100 | > 100 | > 100 | > 100 | > 100 | > 100 | > 100 | > 100 | > 100 | > 100 |
